The values that follow come from patent US10085955B2, “Methods and compositions for treatment of demyelinating diseases” (Pathologica LLC, priority 2013, dated 2018).

Like-named read-outs stand apart in the source and are kept apart here.

The Cmax is the highest concentration seen after dosing. What is called Tmax is the time at which the peak concentration occurs.

Details of data set [1]: species or system beagle dogs. Particulars: male, beagle, dog, in vivo. As to the method:
Two groups of three male beagle dogs weighing 9.0-10.7 kg and aged 8-30 months were fasted overnight before being administered the test article, MGBG, as either a single bolus intravenous dose of 1 mg/kg (Group 1) or as a single oral gavage dose of 10 mg/kg (Group 2). Dose formulation analysis verified administered dose solutions as within 17% of targeted concentrations of 1 and 10 mg/kg for Groups 1 and 2, respectively.
Blood samples (approximately 2.0 mL) were collected for plasma MGBG concentration measurement from all intravenously dosed animals prior to dosing and at approximately T=0.083 (5 min), 0.25 (15 min), 0.5 (30 min), 1, 2, 4, 8, and 24 hours after dosing. A similar procedure was used with orally dosed animals was used, except that collection took place at T=1, 2, 4, 8, 12, 24, and 36 hours after dosing. The samples were centrifuged under refrigerated conditions following completion of sample collection at each interval. The resulting plasma was separated and stored frozen at approximately −70° C. until analysis.

Data set [2] relates to collagen-induced arthritis (CIA) model. Description: Murine collagen-induced arthritis. It is filed as in vivo, DBA/1 mice. Particulars: mice, 25 mg/kg PO BID. The source says: The collagen-induced arthritis (CIA) model is considered a suitable model for studying potential drugs active in human arthritis because of the many immunological and pathological similarities to human rheumatoid arthritis (RA), the involvement of localized major histocompatibility, […] class-II-restricted T helper lymphocyte activation, and the similarity of histological lesions. See, e.g., Rosloniec E F et al., “Collagen-Induced Arthritis,” Current Protocols in Immunology, Unit 15.5 (1993). See also the model using a monoclonal antibody to CD18 and VLA-4 integrins described in Issekutz, A. C. et al., Immunology (1996) 88:569. […]
Data. […] Edema is measured on days 18-20, 22-27, and 29-34. Inflammation is assessed by infiltration of inflammatory cells and edema. Post-euthanasia, terminal blood draws are collected, heparinized, and frozen at −70° C. until analyzed for cytokines such as osteopontin, TNFalpha, IL-1, CRP, MCP1, MIP-lbeta, RANTES, IFNgamma, TGFbeta, IP-10, IL-17, and MMP9. […] Bone resorption is quantified by presence of osteoclasts, defects in or loss of medullary trabecular or cortical bone. Cartilage damage is assessed by examining the severity and spread of chondrocyte loss and collagen disruption. […]
Statistical Analysis. Clinical data for paw scores (means for animal) are analyzed by determining the area under the dosing curve (AUC) for days 1-15. […]

The nature of data set [3]: Multi-dose rat pharmacokinetic and tolerability study. It is filed as in vivo, Sprague Dawley rats. To be noted: for AUC0-12 / AUC0-24 / Cmax / Tmax: PO twice daily; for fold increase in mean AUCall compared to Study Day 1: repeat twice-daily PO. As to the method:
The purpose of this study was to determine the pharmacokinetic (PK) properties and tolerability of MGBG in rats. Additionally, recovery from any toxic effects was assessed after a seven day non-dosing period.
Three per group of male Sprague Dawley (CD® IGS, Charles River) aged 7-9 weeks and weighing 222.7-252.0 g were administered by oral (PO) gavage, twice daily, at 10, 20, or 30 mg/kg/dose (20, 40, or 60 mg/kg/day) for seven consecutive days. A washout period of seven days followed. Collection of approximately 200 μL of whole blood was collected from the tail vein of all animals in Groups 5, 6, and 7 were bled at six (Day 1), seven (Day 7), or one (Days 9 through 15) time point(s), respectively. Whole blood samples were collected in a lithium heparin microtainer and processed to plasma by centrifugation. Plasma was frozen at −70° C. Pharmacokinetic analyses were performed on the individual animal plasma concentration versus time data for MGBG using WinNonlin (linear trapezoidal rule for AUC calculations). Nominal dose values and sampling times were used for calculations. For Study Day 7, the reported values for MGBG concentrations at time zero were used in the calculations of AUC. Study Day 1 disposition parameters were not reported due to insufficient terminal phase data to adequately characterize these parameters.

In data set [1] (iv, 1 mg/kg), `CC(/C=N/NC(=N)N)=N\NC(=N)N` [MGBG, 1,1′ [methylethanediylidene]dinitrilodiguanidine] had a Clobs of 13.7 mL/min/kg and a VSSobs of 14.6 L/kg. Further, in data set [1] (po, 10 mg/kg), the Clobs was 8.29 mL/min/kg and the Vd amounted to 14.6 L/kg. In data set [2], the “early phase of paw swelling/inflammation” value is on record as “did affect the early phase of paw swelling/inflammation” and the “efficacy as a disease-modifying anti-rheumatic drug (DMARD)” value is listed as “not efficacious”. The “hematology differences versus control group” value in data set [3] (60 mg/kg/day dose group, not thought to be adverse) is “lower reticulocyte count and percentage”. Besides, the “gross or microscopic lesions at terminal sacrifice” value in data set [3] (PO twice daily 7 days, 20-60 mg/kg/day) is given as “No gross or microscopic lesions”. In addition, in data set [3] (20 mg/kg/day, Day 7), the AUC0-12 was determined as 1030 ng·h/mL, the AUC0-24 amounted to 2190 ng·h/mL, the maximum concentration (Cmax) is given as 117 ng/mL and the Tmax was found to be 14 h. Moreover, in data set [3] (40 mg/kg/day, Day 7), the AUC0-12 stood at 1800 ng·h/mL, the AUC0-24 was 3690 ng·h/mL, the Cmax amounted to 194 ng/mL and the Tmax is listed as 9.33 h. The Tmax in data set [3] (60 mg/kg/day, Day 1) is recorded as 3.33 h. Besides, in data set [3] (60 mg/kg/day, Day 7), the AUC0-12 stood at 3130 ng·h/mL, the AUC0-24 turned out to be 6040 ng·h/mL, the Cmax is 337 ng/mL and the time to peak (Tmax) stood at 7.33 h. The “fold increase in mean AUCall compared to Study Day 1” value (from here on “fold increase in mean AUCall”) in data set [3] (20 mg/kg/day) is 3.77 fold. The “fold increase in mean AUCall” value in data set [3] (40 mg/kg/day) was 4.03 fold. Further, in data set [3] (60 mg/kg/day), the “fold increase in mean AUCall” value is 3.68 fold.
